Measurements reported in the NIST ThermoML archive (doi:10.1021/je020140j).
± gives the expanded uncertainty stated by the source.

Key:
[1] = xn = mol fraction of the nth substance listed; details: 101 kPa, Liquid, x2 = 0
[2] = molar heat capacity at constant pressure; xn = mol fraction of the nth substance listed; details: 101 kPa, Liquid, Small sample (50 mg) DSC, x2 = 0
[3] = 101 kPa, Liquid
[4] = molar heat capacity at constant pressure; details: 101 kPa, Liquid, Small sample (50 mg) DSC

In the case of `O` [water] + OCCO, the viscosity ([1]; 293.15 K) is reported as 1.002 ± 0.019 mPa·s, the viscosity ([1]; 303.15 K) is reported as 0.797 ± 0.015 mPa·s and the viscosity ([1]; 313.15 K) is reported as 0.653 ± 0.013 mPa·s. The viscosity ([1]; 323.15 K) was 0.547 ± 0.012 mPa·s, the mass density ([1]; 333.15 K) was 983.2 ± 5.1 kg/m3 and the viscosity ([1]; 333.15 K) was 0.467 ± 0.011 mPa·s. For the same molecule, the mass density ([1]; 343.15 K) was 977.8 ± 5.5 kg/m3, the viscosity ([1]; 343.15 K) was 0.405 ± 0.01 mPa·s and the mass density ([1]; 353.15 K) was 971.8 ± 5.8 kg/m3. The viscosity ([1]; 353.15 K) was 0.356 ± 0.01 mPa·s, the “molar heat capacity at constant pressure” value ([2]; 293.15 K) was 75.29 ± 1.8 J/K/mol and the “molar heat capacity at constant pressure” value ([2]; 303.15 K) was 75.38 ± 1.8 J/K/mol. The “molar heat capacity at constant pressure” value ([2]; 313.15 K) was 75.21 ± 1.8 J/K/mol, the “molar heat capacity at constant pressure” value ([2]; 323.15 K) was 75.23 ± 1.8 J/K/mol and the “molar heat capacity at constant pressure” value ([2]; 333.15 K) was 75.21 ± 1.8 J/K/mol. For the same molecule, the “molar heat capacity at constant pressure” value ([2]; 343.15 K) was 75.32 ± 1.8 J/K/mol and the “molar heat capacity at constant pressure” value ([2]; 353.15 K) was 75.48 ± 1.9 J/K/mol.
Molecule `OCCO` [1,2-ethanediol] has a mass density ([3]; 293.15 K) of 1113.7 ± 4.3 kg/m3, a viscosity ([3]; 293.15 K) of 20.83 ± 0.27 mPa·s and a viscosity ([3]; 303.15 K) of 13.65 ± 0.18 mPa·s. The mass density ([3]; 313.15 K) was 1093.6 ± 4.9 kg/m3, the viscosity ([3]; 313.15 K) was 9.443 ± 0.13 mPa·s and the mass density ([3]; 323.15 K) was 1084.7 ± 5.3 kg/m3. For the same molecule, the viscosity ([3]; 323.15 K) was 6.992 ± 0.11 mPa·s, the mass density ([3]; 333.15 K) was 1076.4 ± 5.6 kg/m3 and the viscosity ([3]; 333.15 K) was 5.06 ± 0.082 mPa·s. The mass density ([3]; 343.15 K) was 1067.5 ± 5.9 kg/m3, the viscosity ([3]; 343.15 K) was 3.987 ± 0.066 mPa·s and the mass density ([3]; 353.15 K) was 1060 ± 6.3 kg/m3. For the same molecule, the viscosity ([3]; 353.15 K) was 3.021 ± 0.051 mPa·s, the “molar heat capacity at constant pressure” value ([4]; 293.15 K) was 147.47 ± 3.6 J/K/mol and the “molar heat capacity at constant pressure” value ([4]; 303.15 K) was 149.71 ± 3.7 J/K/mol. For the same molecule, the “molar heat capacity at constant pressure” value ([4]; 313.15 K) was 152 ± 3.7 J/K/mol, the “molar heat capacity at constant pressure” value ([4]; 323.15 K) was 153.8 ± 3.8 J/K/mol and the “molar heat capacity at constant pressure” value ([4]; 333.15 K) was 156.22 ± 3.8 J/K/mol. The “molar heat capacity at constant pressure” value ([4]; 343.15 K) was 159.7 ± 3.9 J/K/mol, the “molar heat capacity at constant pressure” value ([4]; 353.15 K) was 161 ± 4 J/K/mol and the “molar heat capacity at constant pressure” value ([4]; 363.15 K) was 164.98 ± 4 J/K/mol. The “molar heat capacity at constant pressure” value ([4]; 373.15 K) was 168.45 ± 4.1 J/K/mol.
